Measurements taken from PMC11310113, “Development of a UPLC-MS/MS method for quantifying KPT-335 (Verdinexor) in feline plasma for a study of PK” (Frontiers in Veterinary Science, 2024).
Where two headings read alike, the source gives them in different places.

Columns and labels:
[1] = Pharmacokinetic study of KPT-335 capsules in cats, single oral dose; format: in vivo, cat
Protocol: The recommended dose of KPT-335 for dogs is 1.5 mg/kg body weight (BW). To calculate the dose for cats, the average weight of the tested cats was substituted in the equation used for dogs, and the recommended dose was 2 mg/kg BW through body surface area (BSA) conversion ([20]). The formula was as follows: […]
where K is a constant determined for different animal species, such as a dog (11.0) and cat (8.7), and W is the BW (kg) of the animal. Km is approximated by the individual animal species taking the ratio between the mean weight (kg) and BSA (m^2), this value can be calculated using Formula 1. The average weight of the six tested cats was used in BW parameters, the dosage was calculated by Formula 2, and KPT-335 was weighed into capsules and administered to the animals. The cats were fasted for 12 h before and 2 h following drug administration. Potential adverse effects were monitored during the study. The capsules were administered orally as a single bolus to the back of the tongue via a dosing syringe, accompanied by 3–5 mL of water.
Samples of blood (1 mL) were collected from the brachial cephalic vein at 0.167, 0.333, 0.5, 0.75, 1, 1.5, 2, 4, 6, 8, 12, 24, 36, and 48 h pre- and post-oral dosing into an anticoagulant blood collection tube containig heparin sodium. Blood samples were centrifuged for 8 min at 1800 × g. The plasma layer was taken and divided evenly into two. The plasma samples were stored at −20°C until analysis (within 20 days of collection). For the pharmacokinetic parameters, the blood drug concentration-time data was analyzed by using WinNonlin software (version 8.1, United States). The elimination half-life (T1/2), the maximum plasma concentration of KPT-335 (Cmax), the time when the plasma concentration reached a maximum (Tmax), and the area under the concentration-time curve (AUC) were determined.

[2] = Stability of KPT-335 in cat plasma samples (UPLC-MS/MS); format: in vitro ADME; conditions: for recovery at 8 h: cat
Protocol: KPT-335 working solution was added to blank plasma, LQC, MQC, and HQC samples to investigate the room-temperature stability for 2 h, freeze–thaw stability with three times, autosampler stability for 24 h, and long-term stability of 20 days at −20°C. The stability of the stock solution for 20 days was also investigated.
Given that plasma is mostly neutral or alkaline, to optimize the stability of KPT-335 at room temperature and ensure the desirable result of the sample during the detection process, we carried out further experiments. There were four groups in the experiment. The first group was the normal preparation of the sample, and the second, third, and fourth groups were samples containing 0.01, 0.05, or 0.1% formic acid, respectively. All the samples were placed at room temperature for 12 h and then processed at the same time for detection.

[3] = parameters: method as in PMID 24503695; conditions: healthy beagle dogs (n = 6), single dose 1.5 mg/kg BW p.o. after meals; cited from earlier work
[4] = parameters: method as in PMID 30143046; conditions: day 14, cited from earlier work; for AUClast (AUC) / HL_Lambda_z / Tmax: dog (n = 4)
[5] = cat (n = 6), 2 mg/kg BW p.o., single dose, fasted
[6] = plasma, cats, single oral dose of capsules 2 mg/kg BW
[7] = average of all dogs (1.5 and 1.25 mg/kg BW)

AUC_%Extrap_obs [1, 5]: 11.32 ± 6.56%
HL_Lambda_z [1, 5]: 5.16 ± 2.30 h
MRT last ([1]; plasma, po, cat (n = 6), 2 mg/kg BW p.o., single dose, fasted): 5.46 ± 2.14 h
k el ([1]; plasma, po, cat (n = 6), 2 mg/kg BW p.o., single dose, fasted, read-out: Lambda_z (converted)): 4.17e-05 s⁻¹
AUC(0-inf) [1, 6]: 1590 ± 1000 ng·h/mL
AUC(0-t) [1, 6]: 1440 ± 965 ng·h/mL
Cmax [1, 6]: 240 ± 191 ng/mL
Tmax [1, 6]: 1.46 ± 0.51 h
half-life [1, 6]: 5.16 ± 2.3 h
room temperature stability accuracy ([2]; acidic plasma (formic acid added), room temperature, 12 h): still acceptable
recovery at 8 h ([2]; plasma, 4°C, read-out: sample recovery): > 80%
recovery at 8 h ([2]; plasma, 8 h at room temperature, read-out: sample recovery rate): 59 to 67.5%
recovery at 8 h ([2]; plasma, light-protected, read-out: recovery rate of light-protected samples): 60.4 to 63.2%
accuracy of stable samples at room temperature ([2]; plasma containing 0.1% formic acid, room temperature, 12 h): more than 85%
room temperature stability accuracy ([2]; plasma, room temperature, 2 h, all concentrations): met the requirement of ±15%
room temperature stability accuracy ([2]; plasma, room temperature, 8 h): did not meet the requirement of ±15%
room temperature stability result ([2]; plasma, room temperature, 24 h): not within the requirement of ±15%
Compound: O=C(/C=C\n1cnc(-c2cc(C(F)(F)F)cc(C(F)(F)F)c2)n1)NNc1ccccn1 [KPT-335]
AUCINF_obs [3]: 1810 ± 216 ng·h/mL
AUClast (AUC0-t) [3]: 1760 ± 223 ng·h/mL
Cmax [3]: 253 ± 88.3 ng/mL
HL_Lambda_z (T1/2) [3]: 3.88 ± 1.47 h
Tmax [3]: 3.83 ± 2.71 h
average T1/2 [4, 7]: 5 h
average Tmax [4, 7]: 5.3 h
AUClast (AUC) ([4]; 1.25 mg/kg BW p.o.): 1576.5 ng·h/mL
HL_Lambda_z ([4]; 1.25 mg/kg BW p.o.): 5 h
Tmax ([4]; 1.25 mg/kg BW p.o.): 5.3 h
AUClast (AUC) ([4]; 1.5 mg/kg BW p.o.): 2346.8 ng·h/mL
HL_Lambda_z ([4]; 1.5 mg/kg BW p.o.): 5 h
Tmax ([4]; 1.5 mg/kg BW p.o.): 5.3 h
